Consider six compounds from patent US4552877A, “Nb -Quaternary derivatives of sandwicine and isosandwicine methods and intermediate products in the manufacture of their derivatives and methods of using same and pharmaceutical compositions thereof” (Kali-Chemie Pharma GmbH, priority 1979, dated 1985).

Broadly, the LD50 is the dose expected to kill half of the subjects tested.

Data set [1] deals with male NMRI-mice. As to the kind of experiment: minimum symptom dose (procedure of Campbell and Richter). Particulars: i.p., changes in behavior in 2 out of 3 mice. It is filed as in vivo, mouse. On the procedure: The minimum symptom dose is determined in male NMRI-mice (body weight range 18-22 g) according to the procedure of Campbell and Richter (see D.E.S. Campbell and W. Richter, Acta Pharmacol Toxicol, 25 (1967), pp 345-363). The minimum symptom dose is defined as that dose in μmol/kg which after i.p. administration causes changes in behavior in 2 out of 3 mice. The minimum symptom dose is a measure for evaluating undesirable side effects.

The nature of data set [2]: acute toxicity (LD50, 7th day after application). Type of data set: in vivo, mouse. The note with it: mouse, in vivo, male NMRI-mice, mortality on 7th day. On the procedure: (§1) The acute toxicity of the compounds is determined in male NMRI-mice (body weight range 18-22 g) after oral (p.o) and intraperitonal (i.p.) administration. The LD50 is defined as that dose in μmole/kg which causes a 50% mortality rate of the test animals on the 7th day after application. The calculation of the LD50 is carried out by probitanalysis (see L. Cavalli-Sforza, Grundbegriffe der Biometrie, Gustav Fischer Verlag, Stuttgart, (1964)).

The subject of data set [3] is isolated left atria of female guinea pigs. As to the kind of experiment: functional refractory period (FRP) and contraction force (CF) in isolated left atria, double stimulus method of Govier. More on the design: species or system guinea pig. The note with it: for IC25 / EC25: Cavia porcellus, 0.3 h; for IC25: read-out: CF (concentration reducing contraction force to 75% of starting value); for EC25: read-out: FRP (concentration prolonging functional refractory period to 125% of starting value); for ratio between contraction force-reducing dose and functional refractory period-prolonging dose (CF/FRP): indication of the therapeutic range of the antiarrhythmic effect on the isolated organ, 18 min. On the procedure:
The prolongation of the functional refractory period (FRP) and the contraction force (CF) in the isolated left atria of female guinea pigs (albino Pirbright-white guinea pigs, body weight 300-400 g) are determined according to the double stimulus method of Govier (see W.C. Govier, J. Pharmakol. Exp. Ther. 148 (1965) pp 100-105). The concentrations which are given in the table below are the concentrations in μmol/l which 18 minutes after application leads to a prolongation of the functional refractory period to 125% or respectively to a reduction of the contraction force to 75% of the starting value. Furthermore, the ratio between contraction force-reducing dose and functional refractory period-prolonging dose is given. This ratio is an indication of the therapeutic range of the antiarrhythmic effect on the isolate organ (see K. Gref, Verh. Dtsch. Ges. Kreislaufforsch. 35 (1969) pp 88-97).

Data set [4] has as its system male NMRI-mice. As to the kind of experiment: acute toxicity (LD50, 7th day after application). It is filed as in vivo, mouse. Particulars: mortality on 7th day, 10080 min; for LD50 p.o.: oral. On the procedure: as §1
Setting [5] is: ip, intraperitoneal, read-out: LD50 i.p.
Where [6] appears, read: isolated guinea pig left atria, 18 minutes after application.

Structures can show the parent of a compound that is named as a salt. Where two headings read alike, the source gives them in different places.

Turning to `CCC1C2CC3C4N(C)c5ccc(Br)cc5C45CC(C2C5O)[N+]3(C)C1O` (stereo not drawn) [Example 1.b, Nb-methyl-10-bromosandwicinium hydrogen tartrate], the “Min. Symptom-dose” value in the data set on male NMRI-mice [1] turned out to be 11 µmol/kg. In data set [2] (setting [5]), the LD50 at 168 h was found to be 325 µmol/kg. The LD50 at 168 h in data set [2] (po, read-out: LD50 p.o.) is 1910 µmol/kg. Further, in data set [3] (setting [6]), the IC25 was 20.2 µM and the EC25 was 3.2 µM. The “ratio between contraction force-reducing dose and functional refractory period-prolonging dose (CF/FRP)” value in data set [3] came out at 6.4.

Turning to `CCC[N+]12C(O)C(CC)C3CC1C1N(C)c4ccc(Br)cc4C14CC2C3C4O` (stereo not drawn) [Example 2.b, Nb-n-propyl-10-bromosandwicinium hydrogen tartrate], in the data set on male NMRI-mice [1], the “Min. Symptom-dose” value was 42 µmol/kg. For the same compound, the LD50 p.o. in the data set with male NMRI-mice [4] is 1133 µmol/kg. The LD50 at 168 h in data set [2] (setting [5]) worked out at 101 µmol/kg. Also, in data set [3] (setting [6]), the IC25 was determined as 4.7 µM and the EC25 came to 1.4 µM. In addition, the “ratio between contraction force-reducing dose and functional refractory period-prolonging dose (CF/FRP)” value in data set [3] was 3.3.

On to `CCCCCC[N+]12C(O)C(CC)C3CC1C1N(C)c4ccc(Br)cc4C14CC2C3C4O` (stereo not drawn) [Example 4.b, Nb-n-hexyl-10-bromosandwicinium hydrogen tartrate], for which, in the data set on male NMRI-mice [1], the “Min. Symptom-dose” value was 39 µmol/kg. In addition, the LD50 at 168 h in data set [2] (setting [5]) is 112 µmol/kg. In data set [2] (po, read-out: LD50 p.o.), the LD50 at 168 h is greater than 2300 µmol/kg. In addition, in data set [3] (setting [6]), the IC25 is 2 µM and the EC25 worked out at 4.3 µM. Also, in data set [3], the “ratio between contraction force-reducing dose and functional refractory period-prolonging dose (CF/FRP)” value is 0.5.

For the compound `CCC1C2CC3C4N(C)c5ccc(Br)cc5C45CC(C2C5O)[N+]3(CC(O)CN2CCCCC2)C1O` (stereo not drawn) [Example 8, Nb-[2-hydroxy-3-(1-piperidinyl)propyl]-10-bromosandwicinium bishydrogen tartrate], the “Min. Symptom-dose” value in the data set on male NMRI-mice [1] is 59 µmol/kg. Besides, in data set [2] (setting [5]), the LD50 at 168 h stood at 169 µmol/kg. Moreover, in data set [2] (po, read-out: LD50 p.o.), the LD50 at 168 h turned out to be 1190 µmol/kg. Besides, in data set [3] (setting [6]), the IC25 came to 3.4 µM and the EC25 amounted to 8.3 µM. For the same compound, the “ratio between contraction force-reducing dose and functional refractory period-prolonging dose (CF/FRP)” value in data set [3] stood at 0.4.

Consider `CCC[N+]12C(O)C(CC)C3CC1C1N(C)c4ccc(Br)cc4C14CC2C3C4O` (stereo not drawn) [Example 12.b, Nb-n-propyl-10-bromoisosandwicinium hydrogen tartrate], for which the “Min. Symptom-dose” value in the data set on male NMRI-mice [1] worked out at 10 µmol/kg. The same compound yielded an LD50 i.p. with male NMRI-mice [4] (intraperitoneal) of 118 µmol/kg. For the same compound, in the data set with male NMRI-mice [4], the LD50 p.o. came out at 566 µmol/kg. For the same compound, in data set [3], the “ratio between contraction force-reducing dose and functional refractory period-prolonging dose (CF/FRP)” value was 3.6. Also, in data set [3] (setting [6]), the “CF (concentration reducing contraction force to 75% of starting value)” value was 6.5 µmol/L and the “FRP (concentration prolonging functional refractory period to 125% of starting value)” value came to 1.8 µmol/L.

Regarding `CCC[N+]12C(O)C(CC)C3CC1C1N(C)c4ccccc4C14CC2C3C4O` (stereo not drawn) [Neo-Gilurytmal, Nb -propylajmalinium hydrogen tartrate, reference compound], in the data set on male NMRI-mice [1], the “Min. Symptom-dose” value was 12 µmol/kg. Further, the LD50 at 168 h in data set [2] (setting [5]) was found to be 41 µmol/kg; in data set [2] (po, read-out: LD50 p.o.) it was 65 µmol/kg. The IC25 in data set [3] (setting [6]) was 0.26 µM. For the same compound, the EC25 in data set [3] (setting [6]) worked out at 1.8 µM. For the same compound, the “ratio between contraction force-reducing dose and functional refractory period-prolonging dose (CF/FRP)” value in data set [3] is given as 0.15.
